{"source": "patent US7705148B2", "about": "“Processes for the preparation of 4-[[4-[[4-(2-cyanoethenyl)-2,6-dimethylphenyl]amino]-2-pyrimidinyl]amino]benzonitrile” (priority 2008, dated 2010)", "key": {"HIV": {"tested_on": "HIV", "experiment": "Determination of anti-HIV activity: inhibition of HIV-induced cytopathic effect in MT-4 cells (MTT)", "assay_type": "cell-based, Human Immunodeficiency Virus", "experimental": "(§1) A rapid, sensitive and automated assay procedure was used for the in vitro evaluation of anti-HIV agents. An […] T4-cell line, MT-4, which was previously shown (Koyanagi et al., Int. J. Cancer, 36, 445-451, 1985) to be highly susceptible to and permissive for HIV infection, served as the target cell line. Inhibition of the HIV-induced cytopathic effect was used as the end point. The viability of both HIV- and mock-infected cells was assessed spectrophotometrically via the in situ reduction of 3-(4,5-dimethylthiazol-2-yl)-2,5-diphenyltetrazolium bromide (MTT). The 50% cytotoxic concentration (CC50 in M) was defined as the concentration of compound that reduced the absorbance of the mock-infected control sample by 50%. The percent protection achieved by the compound in HIV-infected cells was calculated by the following formula:\n(§2) [formula] whereby (ODT)HIV is the optical density measured with a given concentration of the test compound in HIV-infected cells; (ODC)HIV is the optical density measured for the control untreated HIV-infected cells; (ODC)MOCK is the optical density measured for the control untreated mock-infected cells; all optical density values were determined at 540 nm. The dose achieving 50% protection according to the above formula was defined as the 50% inhibitory concentration (IC50 in M). The ratio of CC50 to IC50 was defined as the selectivity index (SI)."}, "[1]": {"experiment": "Cytotoxicity in mock-infected MT-4 cells (MTT)", "assay_type": "cell-based", "settings": "human, OD 540 nm, read-out: CC50 (50% cytotoxic concentration)", "experimental": "as §1, §2"}, "[2]": {"tested_on": "resistant mutants of HIV-1 (single and double mutants)", "experiment": "Replication inhibiting activity towards resistant mutants of HIV-1", "assay_type": "cell-based", "settings": "single and double mutants of HIV-1", "experimental": "Compound X was also tested for its replication inhibiting activity towards resistant mutants of HIV-1 (single and double mutants)."}}, "data": [{"smiles": "Cc1cc(/C=C/C#N)cc(C)c1Nc1ccnc(Nc2ccc(C#N)cc2)n1", "note": "[Compound X, 4-[[4-[[4-(2-cyanoethenyl)-2,6-dimethylphenyl]amino]-2-pyrimidinyl]amino]benzonitrile (E)]", "values": [{"measurement": "SI (selectivity index, ratio of CC50 to IC50)", "setting": "HIV", "result": "25,119"}, {"measurement": "CC50", "setting": "[1]", "result": 10, "unit": "µM"}, {"measurement": "replication inhibiting activity against resistant strains", "setting": "[2]", "result": "high activity"}]}]}
